From patent US7968570B2, “Isoindolone compounds and their use as metabotropic glutamate receptor potentiators” (AstraZeneca AB, priority 2004, dated 2011)

molecular target: T1, human mGluR2 receptor (Homo sapiens, UniProt Q14416); assay: [35S]-GTPγS binding assay of mGluR2 receptor activation; assay type: biochemical; conditions: not given
T1 construct: expressed in transfected cells
Procedure: A [^35S]-GTPγS binding assay was used to functionally assay mGluR2 receptor activation. The allosteric activator activity of compounds at the human mGluR2 receptor were measured using a [^35S]-GTPγS binding assay with membranes prepared from CHO cells which stably express the human mGluR2. The assay is based upon the principle that agonists bind to G-protein coupled receptors to stimulate GDP-GTP exchange at the G-protein. Since [^35S]-GTPγS is a non-hydrolyzable GTP analog, it can be used to provide an index of GDP-GTP exchange and, thus, receptor activation. The GTPγS binding assay therefore provides a quantitative measure of receptor activation.
Membranes were prepared from CHO cells stably transfected with human mGluR2. Membranes (30 μg protein) were incubated with test compound (3 nM to 300 μM) for 15 minutes at room temperature prior to the addition of 1 μM glutamate, and incubated for 30 min at 30° C. in 500 μl assay buffer (20 mM HEPES, 100 mM NaCl, 10 mM MgCl2), containing 30 μM GDP and 0.1 nM [^35S]-GTPγS (1250 Ci/mmol). Reactions were carried out in triplicate in 2 ml polypropylene 96-well plates. Reactions were terminated by vacuum filtration using a Packard 96-well harvester and Unifilter-96, GF/B filter microplates. The filter plates were washed 4×1.5 ml with ice-cold wash buffer (10 mM sodium phosphate buffer, pH 7.4). The filter plates were dried and 35 μl of scintillation fluid (Microscint 20) was added to each well. The amount of radioactivity bound was determined by counting plates on the Packard TopCount. Data was analyzed using GraphPad Prism, and EC50 and Emax values (relative to the maximum glutamate effect) were calculated using non-linear regression.

T1 sequence (Q14416 19-872): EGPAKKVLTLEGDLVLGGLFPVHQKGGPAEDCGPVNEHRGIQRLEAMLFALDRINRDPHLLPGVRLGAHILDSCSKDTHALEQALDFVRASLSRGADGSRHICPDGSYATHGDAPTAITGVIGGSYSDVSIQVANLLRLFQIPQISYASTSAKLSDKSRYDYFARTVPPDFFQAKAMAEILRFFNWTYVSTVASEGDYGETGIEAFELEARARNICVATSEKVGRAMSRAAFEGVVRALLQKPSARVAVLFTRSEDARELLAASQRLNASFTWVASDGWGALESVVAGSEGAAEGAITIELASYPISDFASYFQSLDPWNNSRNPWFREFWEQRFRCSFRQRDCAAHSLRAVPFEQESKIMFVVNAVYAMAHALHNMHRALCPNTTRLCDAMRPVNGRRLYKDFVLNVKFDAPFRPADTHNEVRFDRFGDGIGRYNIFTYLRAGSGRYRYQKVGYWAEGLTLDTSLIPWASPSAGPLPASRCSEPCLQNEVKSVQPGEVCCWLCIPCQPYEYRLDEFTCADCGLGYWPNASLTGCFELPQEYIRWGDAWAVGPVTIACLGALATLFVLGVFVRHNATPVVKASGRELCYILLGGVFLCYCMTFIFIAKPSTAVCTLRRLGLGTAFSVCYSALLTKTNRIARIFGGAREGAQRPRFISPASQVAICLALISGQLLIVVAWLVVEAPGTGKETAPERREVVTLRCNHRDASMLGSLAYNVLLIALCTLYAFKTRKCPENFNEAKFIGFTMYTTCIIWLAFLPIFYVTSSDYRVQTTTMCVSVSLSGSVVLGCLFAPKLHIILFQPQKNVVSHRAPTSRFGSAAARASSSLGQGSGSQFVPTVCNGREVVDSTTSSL

SMILES	EC50 [nM]
Cc1cc(-c2nnc(CN(C)C)o2)cc2c1C(=O)N(Cc1ccc(OC(F)(F)F)cc1)C2 [Example 175, 5-(5-Dimethylamino-methyl-[1,3,4]oxadiazol-2-yl)-7-methyl-2-(4-trifluorometh-oxy-benzyl)-2,3-dihydro-isoindol-1-one]	6400
CCN(CC)Cc1noc(-c2cc(C)c3c(c2)CN(Cc2ccc(OC(F)(F)F)cc2)C3=O)n1 [Example 177, 5-(3- Diethylaminomethyl-[1,2,4]oxadiazol-5-yl)-7-methyl-2-(4-trifluorometh-oxy-benzyl)-2,3-dihydro-isoindol-1-one]	140

The next lines start with the values.

EC50 [nM]	SMILES
100	Cc1cc(-c2nc(CN(C)C)no2)cc2c1C(=O)N(Cc1ccc(OC(F)(F)F)cc1)C2 [Example 180, 5-(3-Dimethylamino-methyl-[1,2,4]oxadiazol-5-yl)-7-methyl-2-(4-trifluorometh-oxy-benzyl)-2,3-dihydro-isoindol-1-one]
470	CNCc1noc(-c2cc(C)c3c(c2)CN(Cc2ccc(OC(F)(F)F)cc2)C3=O)n1 [Example 179, 7-Methyl-5-(3-methylamino-methyl-[1,2,4]oxadiazol-5-yl)-2-(4-trifluorometh-oxy-benzyl)-2,3-dihydro-isoindol-1-one]

same assay, conditions: membranes from CHO cells stably expressing human mGluR2; 1 μM glutamate

SMILES	EC50 [nM]
O=C1c2c(Cl)cc(-c3ccncc3)cc2CN1Cc1ccc(OC(F)(F)F)cc1 [Example 102, 7-Chloro-5-pyridin-4-yl-2-(4-trifluoromethoxy-benzyl)-2,3-dihydro-isoindol-1-one]	90
CCNCc1cc(C)c2c(c1)CN(Cc1ccc(OC(F)(F)F)cc1)C2=O [Example 53, 5-Ethylamino-methyl-7-methyl-2-(4-trifluoromethoxy-benzyl)-2,3-dihydro-isoindol-1-one]	6310
Cc1cc(CN2CCN(c3ccccn3)CC2)cc2c1C(=O)N(Cc1ccc(OC(F)(F)F)cc1)C2 [Example 43, 7-Methyl-5-(4-pyridin-2-yl-piperazin-1-ylmethyl)-2-(4-trifluoromethoxy-benzyl)-2,3-dihydro-isoindol-1-one]	50
Cc1cc(N2CCN3CCCC3C2)cc2c1C(=O)N(Cc1ccc(OC(F)(F)F)cc1)C2 (centres unmarked) [Example 111, 5- (Hexahydropyrrolo [1,2-a]pyrazin-2-yl)-7-methyl-2-(4-trifluoromethoxybenzyl)-2,3-dihydroisoindol-1-one]	600
CN1CN(c2ccccc2)C2(CCN(c3ccc4c(c3)CN(Cc3ccc(OC(F)(F)F)cc3)C4=O)CC2)C1=O [Example 151, 3-Methyl-8-[1-oxo-2-(4-trifluoromethoxy-benzyl)-2,3-dihydro-1H-isoindol-5-yl]-1-phenyl-1,3,8-triaza-spiro[4.5]decan-4-one]	480

The next lines start with the values.

EC50 [nM]	SMILES
400	O=C1c2c(Cl)cc(N3CCN(c4ccncc4)CC3)cc2CN1Cc1ccc(OC(F)(F)F)cc1 [Example 145, 7-Chloro-5-(4-pyridin-4-yl-piperazin-1-yl)-2-(4-trifluoromethoxy-benzyl)-2,3-dihydro-isoindol-1-one]
1200	Cc1cc(N2CCN(CCN(C)C)CC2)cc2c1C(=O)N(Cc1ccc(OC(F)(F)F)cc1)C2 [Example 140, 5-[4-(2-Dimethylamino-ethyl)-piperazin-1-yl]-7-methyl-2-(4-trifluoro-methoxy-benzyl)-2,3-dihydro-isoindol-1-one]
520	O=C1c2c(Cl)cc(N3CCOCC3)cc2CN1Cc1ccc(OC(F)(F)F)cc1 [Example 155, 7-Chloro-5-morpholin-4-yl-2-(4-trifluoromethoxy-benzyl)-2,3-dihydro-isoindol-1-one]
100	Cc1cc(CN2CCC(CCCc3ccccc3)CC2)cc2c1C(=O)N(Cc1ccc(OC(F)(F)F)cc1)C2 [Example 54, 7-Methyl-5-[4-(3-phenylpropyl)-piperidin-1-ylmethyl]-2-(4-trifluoromethoxy-benzyl)-2,3-dihydroisoindol-1-one]
680	CCN1CCN(c2cc(C)c3c(c2)CN(Cc2ccc(OC(F)(F)F)cc2)C3=O)CC1 [Example 112, 5-(4-Ethylpiperazin-1-yl)-7-methyl-2-(4-trifluoromethoxy-benzyl)-2,3-dihydroisoindol-1-one]
